# According to paper PMC11127330, “Repurposing harmaline as a novel approach to reverse tmexCD1-toprJ1-mediated tigecycline resistance against klebsiella pneumoniae infections” (Microbial Cell Factories, 2024):
# Biological target: T1, TMexD1 (Klebsiella pneumoniae, UniProt A0A411AKL6)
# T1 construct: GST fusion from pGEX-6P-1-tmexD1 (BamHI/XhoI), E. coli BL21(DE3); plasmid-borne gene of tmexCD1-toprJ1
# Test: circular dichroism, secondary structure change
# Conditions: harmaline 128 mg/L; 190-260 nm; indirect evidence of binding
# T1 sequence (A0A411AKL6 entry or part of it): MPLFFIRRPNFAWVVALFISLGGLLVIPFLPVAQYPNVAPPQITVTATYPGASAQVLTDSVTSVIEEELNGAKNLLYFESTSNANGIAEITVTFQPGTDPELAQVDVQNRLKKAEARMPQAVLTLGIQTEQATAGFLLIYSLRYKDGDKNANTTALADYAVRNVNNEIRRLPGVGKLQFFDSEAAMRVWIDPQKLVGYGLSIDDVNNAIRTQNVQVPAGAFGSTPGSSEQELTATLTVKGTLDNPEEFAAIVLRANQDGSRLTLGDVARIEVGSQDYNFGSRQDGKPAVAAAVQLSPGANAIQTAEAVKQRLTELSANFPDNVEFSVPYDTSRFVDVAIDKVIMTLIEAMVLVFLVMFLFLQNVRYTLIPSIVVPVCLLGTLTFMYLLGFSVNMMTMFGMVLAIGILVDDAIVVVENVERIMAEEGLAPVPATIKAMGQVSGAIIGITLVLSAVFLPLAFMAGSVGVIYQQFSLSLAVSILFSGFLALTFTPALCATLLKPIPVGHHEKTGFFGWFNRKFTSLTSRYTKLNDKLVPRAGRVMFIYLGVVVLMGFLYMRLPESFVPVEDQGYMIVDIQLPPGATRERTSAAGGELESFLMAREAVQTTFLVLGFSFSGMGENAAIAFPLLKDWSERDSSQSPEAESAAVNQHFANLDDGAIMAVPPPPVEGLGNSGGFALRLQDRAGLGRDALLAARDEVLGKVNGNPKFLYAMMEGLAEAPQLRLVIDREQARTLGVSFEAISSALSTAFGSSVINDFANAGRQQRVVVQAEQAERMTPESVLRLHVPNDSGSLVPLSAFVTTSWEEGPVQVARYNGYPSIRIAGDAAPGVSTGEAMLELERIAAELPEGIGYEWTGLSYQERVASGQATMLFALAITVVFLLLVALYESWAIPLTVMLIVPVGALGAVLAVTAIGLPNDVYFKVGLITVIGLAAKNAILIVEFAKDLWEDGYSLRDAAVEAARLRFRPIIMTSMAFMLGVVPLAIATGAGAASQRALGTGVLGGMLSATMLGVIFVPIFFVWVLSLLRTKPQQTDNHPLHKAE
structure (smiles),measurement,value
COc1ccc2c3c([nH]c2c1)C(C)=NCC3 [harmaline],"circular dichroism, secondary structure change",TMexD1 (Fig. 7C and D) and TOprJ1 (Fig. 7E and F) were observed by harmaline treatment
